Data set [1] concerns Zebrafish juveniles. Nature of the data set: In vivo labelling of Zebrafish juveniles with probe for biological specimen. The note with it: 1 hour; for Site(s) to be labelled: 10 ng/mL in water, stereoscopic microscope; for Fluorescence sensitivity / Staining property: 10 ng/mL; for Fluorescence sensitivity: fluorescence intensity visually evaluated; for Staining property: visually evaluated. Also noted: key to Staining property: +++: stained; −: no stained; key to Fluorescence sensitivity: +++: strongly observed; ++: moderately observed; +: weakly observed; −: no stained. On the procedure: Five juveniles of Zebrafish were put into one well of a well plate together with rearing water. After rearing water had been discharged, 1 mL of distilled water was added to the well, and a solution of a staining compound (1) in DMSO was further added thereto so as to achieve a concentration of 10 ng/mL, followed by gentle stirring (pipetting). Further, Egg Water was prepared by dissolving artificial seawater SEALIFE (manufactured by Marinetech Co., Ltd.) in distilled water at a concentration of 60 mg/L. After the whole had been left to stand for 1 hour, distilled water in the well was discharged and replaced by 1 mL of fresh Egg Water. In addition, such an operation that Egg Water was discharged and replaced by 1 mL of fresh Egg Water was repeated twice. One of the juveniles was taken out from the well onto a dish, supplemented with 100 μL of a 3% methylcellulose aqueous solution to fix the movement of the juvenile, and photographed with a stereoscopic microscope (MZ10F: manufactured by Leica Microsystems K.K.).
The same operation as that in Example 1 was performed except that the staining compound (1) used in Example 1 was changed to any one of the staining compounds described in Table 1.
The same operation as that in Example 1 was performed except that the staining compound (1) used in Example 1 was changed to any one of indocyanine green (ICG) and fluorescein.
The staining property of each of the staining compounds of Labelled Examples 1 to 78 and Labelled Comparative Examples 1 and 2 was visually evaluated (+++: stained and −: no stained).
The fluorescence intensity of each of the staining compounds of Labelled Examples 1 to 78 and Labelled Comparative Examples 1 and 2 was visually evaluated (+++: strongly observed, ++: moderately observed, +: weakly observed, and −: no stained).

Data set [2] can be described thus: Storage stability of staining compound solution in DMSO. In kind it is physicochemical. The note with it: 10 ng/mL in DMSO, closed glass container, normal temperature, 1 month; rate of change of absorbance and fluorescence intensity. On the procedure: A 10 ng/mL solution of each of the staining compounds of Labelled Examples 1 to 78 and Labelled Comparative Examples 1 and 2 in DMSO was prepared, charged into a well-closed container made of glass, and left to stand still at normal temperature for 1 month. The absorbance and the fluorescence intensity at the time of the start of a storage stability test were measured at a given wavelength, and their rates of change were examined (+++: rates of change of the absorbance and the fluorescence intensity are less than 5%, and thus, the storage stability is highly excellent; ++: rates of change of the absorbance and fluorescence intensity are 5 to 15%, and thus, the storage stability is excellent; and −: rates of change of the absorbance and fluorescence intensity are more than 15%, and thus, the storage stability is poor).

A short description of data set [3]: Excitation and fluorescence emission wavelength measurement. In kind it is physicochemical. Also noted: Stokes shift (λem − λex): unit not given here. The note with it: aqueous solution: 10 mg/mL solution in DMSO diluted 500-fold with purified water. On the procedure:
It should be noted that the excitation wavelength and the fluorescence emission wavelength of the staining compound were determined by measuring an aqueous solution, which had been obtained by diluting 500-fold a 10 mg/mL solution of the staining compound in DMSO with purified water, with a fluorescence spectrophotometer FL 4500 manufactured by Hitachi High-Technologies Corporation.

Molecules are shown by their SMILES.

As for `O=C(O)CN1C(=O)/C(=C\c2ccc3c(c2)C2CCCC2N3c2ccccc2)SC1=S` (stereo not shown) [Dye 1], in data set [1], the “Site(s) to be labelled” value was “blood vessel, gallbladder, and gastrointestinal”; the Fluorescence sensitivity result was “+++”; the Staining property entry is “+++”. Besides, the Storage stability result in data set [2] was “+++ (rates of change of the absorbance and the fluorescence intensity are less than 5%, and thus, the storage stability is highly excellent)”. Further, in data set [3], the Excitation wavelength λex was found to be 531 nm, the Fluorescence emission wavelength λem was found to be 633 nm and the “Stokes shift (λem − λex)” value was 102.
In the case of `O=C(O)CN1C(=O)/C(=C\c2cc(Br)c3c(c2)C2CCCC2N3c2ccc(Br)cc2)SC1=S` (stereo not shown) [Dye 2], in data set [1], the “Site(s) to be labelled” value was “blood vessel, liver, and gastrointestinal tract”; the Fluorescence sensitivity result is “+++”; the Staining property entry is “+++”. Besides, in data set [2], the Storage stability result is “+++ (rates of change of the absorbance and the fluorescence intensity are less than 5%, and thus, the storage stability is highly excellent)”. In data set [3], the Excitation wavelength λex was 482 nm, the Fluorescence emission wavelength λem stood at 609 nm and the “Stokes shift (λem − λex)” value was 127.
On to `O=C(O)CN1C(=O)/C(=C\c2ccc3c(c2)C2CCCC2N3Cc2ccccc2)SC1=S` (stereo not shown) [Dye 3], for which, in data set [1], the “Site(s) to be labelled” value is “blood vessel, gallbladder, and gastrointestinal”; the Fluorescence sensitivity result was “+++”; the Staining property entry is listed as “+++”. Moreover, the Storage stability entry in data set [2] is “+++ (rates of change of the absorbance and the fluorescence intensity are less than 5%, and thus, the storage stability is highly excellent)”. In addition, in data set [3], the Excitation wavelength λex came out at 525 nm, the Fluorescence emission wavelength λem was determined as 607 nm and the “Stokes shift (λem − λex)” value was 82.
For the compound `N#C/C(=C\c1ccc2c(c1)C1CCCC1N2Cc1ccccc1)C(=O)O` (stereo not shown) [Dye 5], in data set [1], the “Site(s) to be labelled” value was “liver, gallbladder, and gastrointestinal tract”; the Fluorescence sensitivity entry is recorded as “++”; the Staining property result is listed as “+++”. Moreover, in data set [2], the Storage stability entry is “+++ (rates of change of the absorbance and the fluorescence intensity are less than 5%, and thus, the storage stability is highly excellent)”. In addition, in data set [3], the Excitation wavelength λex stood at 482 nm, the Fluorescence emission wavelength λem stood at 580 nm and the “Stokes shift (λem − λex)” value was determined as 98.
As for `N#C/C(=C\c1ccc2c(c1)C1CCCC1N2c1ccc(C=C(c2ccccc2)c2ccccc2)cc1)C(=O)O` (stereo not shown) [Dye 7], in data set [1], the “Site(s) to be labelled” value was “blood vessel and liver”; the Fluorescence sensitivity entry is recorded as “+++”; the Staining property entry is recorded as “+++”. The Storage stability result in data set [2] was “+++ (rates of change of the absorbance and the fluorescence intensity are less than 5%, and thus, the storage stability is highly excellent)”. In data set [3], the Excitation wavelength λex is 498 nm, the Fluorescence emission wavelength λem came to 601 nm and the “Stokes shift (λem − λex)” value stood at 103.
In the case of `O=C(O)Cn1c(=O)/c(=C\c2ccc3c(c2)C2CCCC2N3Cc2ccccc2)s/c1=C1/SC(=S)N(Cc2ccccc2)C1=O` (stereo not shown) [Dye 11], in data set [1], the “Site(s) to be labelled” value was “blood vessel, liver, and gastrointestinal tract”; the Fluorescence sensitivity result was “++”; the Staining property result is “+++”. In data set [2], the Storage stability result is “+++ (rates of change of the absorbance and the fluorescence intensity are less than 5%, and thus, the storage stability is highly excellent)”. For the same compound, in data set [3], the Excitation wavelength λex was 588 nm, the Fluorescence emission wavelength λem came to 668 nm and the “Stokes shift (λem − λex)” value amounted to 80.
In the case of `N#C/C(=C\c1ccc2c(c1)C1CCCC1N2c1ccccc1)C(=O)O` (stereo not shown) [Dye 13], in data set [1], the “Site(s) to be labelled” value was “liver and gastrointestinal tract”; the Fluorescence sensitivity result is “++”; the Staining property entry was “+++”. In addition, the Storage stability result in data set [2] was “+++ (rates of change of the absorbance and the fluorescence intensity are less than 5%, and thus, the storage stability is highly excellent)”. Further, in data set [3], the Excitation wavelength λex was determined as 477 nm, the Fluorescence emission wavelength λem stood at 567 nm and the “Stokes shift (λem − λex)” value worked out at 90.
Take `COc1ccc2cc(N3c4ccc(/C=C5\C(=O)N(c6ccccc6)N=C5C(=O)O)cc4C4CCCC43)ccc2c1` (stereo not shown) [Dye 14]: in data set [1], the “Site(s) to be labelled” value is on record as “gallbladder”, the Fluorescence sensitivity result is listed as “++” and the Staining property result is on record as “+++”. Further, the Storage stability entry in data set [2] is “+++ (rates of change of the absorbance and the fluorescence intensity are less than 5%, and thus, the storage stability is highly excellent)”. In addition, in data set [3], the Excitation wavelength λex worked out at 610 nm, the Fluorescence emission wavelength λem amounted to 675 nm and the “Stokes shift (λem − λex)” value came out at 65.
In the case of `CSc1ccc(N2c3ccc(/C=C4/SC(=S)N(CC(=O)O)C4=O)cc3C3CCCC32)cc1` (stereo not shown) [Dye 17], in data set [1], the “Site(s) to be labelled” value was “blood vessel, liver, and gastrointestinal tract”; the Fluorescence sensitivity result is reported as “+++”; the Staining property result is given as “+++”. Moreover, in data set [2], the Storage stability result is “+++ (rates of change of the absorbance and the fluorescence intensity are less than 5%, and thus, the storage stability is highly excellent)”. Also, in data set [3], the Excitation wavelength λex came to 527 nm, the Fluorescence emission wavelength λem is 636 nm and the “Stokes shift (λem − λex)” value stood at 109.
With `COc1ccc2cc(N3c4ccc(/C=C5/SC(=S)N(CCC(=O)O)C5=O)cc4C4CCCC43)ccc2c1` (stereo not shown) [Dye 20], in data set [1], the “Site(s) to be labelled” value is “blood vessel, liver, and gastrointestinal tract”; the Fluorescence sensitivity entry is on record as “+++”; the Staining property result is reported as “+++”. Moreover, the Storage stability entry in data set [2] is “+++ (rates of change of the absorbance and the fluorescence intensity are less than 5%, and thus, the storage stability is highly excellent)”. For the same compound, in data set [3], the Excitation wavelength λex was 533 nm, the Fluorescence emission wavelength λem was 661 nm and the “Stokes shift (λem − λex)” value was determined as 128.
Regarding `CC1=NN(c2ccccc2)C(=O)/C1=C\c1cc(Br)c2c(c1)C1CCCC1N2c1ccc(Br)cc1` (stereo not shown) [Dye 22], in data set [1], the “Site(s) to be labelled” value was “liver and gastrointestinal tract”; the Fluorescence sensitivity result is recorded as “+++”; the Staining property result is “+++”. Moreover, the Storage stability entry in data set [2] is “++ (rates of change of the absorbance and fluorescence intensity are 5 to 15%, and thus, the storage stability is excellent)”. In data set [3], the Excitation wavelength λex was 570 nm, the Fluorescence emission wavelength λem is 598 nm and the “Stokes shift (λem − λex)” value amounted to 28.
On to `O=C(O)C[n+]1c(/C=C/c2ccc3c(c2)C2CCCC2N3Cc2ccccc2)sc2ccccc21` (stereo not shown) [Dye 24], for which, in data set [1], the “Site(s) to be labelled” value was “nose”, the Fluorescence sensitivity entry was “+++” and the Staining property result is given as “+++”. In data set [2], the Storage stability entry was “+++ (rates of change of the absorbance and the fluorescence intensity are less than 5%, and thus, the storage stability is highly excellent)”. Also, in data set [3], the Excitation wavelength λex came out at 566 nm, the Fluorescence emission wavelength λem is 611 nm and the “Stokes shift (λem − λex)” value was 45.
For `N#C/C(=C\c1cc(Br)c2c(c1)C1CCCC1N2Cc1cccc(Br)c1)C(=O)O` (stereo not shown) [Dye 25], in data set [1], the “Site(s) to be labelled” value is “gastrointestinal tract”, the Fluorescence sensitivity entry is given as “++” and the Staining property result is listed as “+++”. Further, in data set [2], the Storage stability entry was “+++ (rates of change of the absorbance and the fluorescence intensity are less than 5%, and thus, the storage stability is highly excellent)”. Also, in data set [3], the Excitation wavelength λex turned out to be 394 nm, the Fluorescence emission wavelength λem was determined as 554 nm and the “Stokes shift (λem − λex)” value was determined as 160.
Regarding `O=C1OC2(c3ccc(O)cc3Oc3cc(O)ccc32)c2ccccc21` [fluorescein, reference compound], in data set [1], the Fluorescence sensitivity entry was “++” and the Staining property result is reported as “+++”. In addition, the Storage stability result in data set [2] was “++ (rates of change of the absorbance and fluorescence intensity are 5 to 15%, and thus, the storage stability is excellent)”.

The record behind these values is US9801960B2, “Probe for a biological specimen and labelling method and screening method using the probe” (CANON KABUSHIKI KAISHA, priority 2008, dated 2017).
